How the values were obtained:
Alternaria solani = test: in vivo preventive test on Alternaria test (tomatoes); settings: single active compound
Text: (§1) A synergistic effect of fungicides is always present when the fungicidal activity of the active compound combinations exceeds the total of the activities of the active compounds when applied individually. The expected activity for a given combination of two active compounds can be calculated as follows (cf. Colby, S. R., “Calculating Synergistic and Antagonistic Responses of Herbicide Combinations”, Weeds 1967, 15, 20-22):
(§2) • X is the efficacy when active compound A is applied at an application rate of m ppm (or g/ha), • Y is the efficacy when active compound B is applied at an application rate of n ppm (or g/ha), • E is the efficacy when the active compounds A and B are applied at application rates of m and n ppm (or g/ha), respectively, and then
(§3) The degree of efficacy, expressed in % is denoted. 0% means an efficacy which corresponds to that of the control while an efficacy of 100% means that no disease is observed.
Example: In Vivo Preventive Test on Alternaria Test (Tomatoes)
(§4) • Solvent: 24.5 parts by weight of acetone • 24.5 parts by weight of dimethylacetamide • Emulsifier: 1 part by weight of alkylaryl polyglycol ether
(§5) To produce a suitable preparation of active compound, 1 part by weight of active compound is mixed with the stated amounts of solvent and emulsifier, and the concentrate is diluted with water to the desired concentration.
(§6) To test for preventive activity, young plants are sprayed with the preparation of active compound at the stated rate of application. After the spray coating has dried on, the plants are inoculated with an aqueous spore suspension of Alternaria solani. The plants are then placed in an incubation cabinet at approximately 20° C. and a relative atmospheric humidity of 100%.
The test is evaluated 3 days after the inoculation. 0% means an efficacy which corresponds to that of the untreated control while an efficacy of 100% means that no disease is observed.

Venturia inaequalis = test: in vivo preventive test on Venturia test (apples); settings: single active compound
Text: as §1, §2, §3
Example: In Vivo Preventive Test on Venturia Test (Apples)
as §4, §5
as §6, with “conidia” for “spore”, “the causal agent of apple scab (Venturia inaequalis) and” for “Alternaria solani. The plants are”, “remain for 1 day” for “placed”
The plants are then placed in a greenhouse at approximately 21° C. and a relative atmospheric humidity of approximately 90%.
(§7) The test is evaluated 10 days after the inoculation. 0% means an efficacy which corresponds to that of the untreated control, while an efficacy of 100% means that no disease is observed.

Botrytis cinerea = test: in vivo preventive test on Botrytis test (beans); settings: single active compound, the 3rd table
Text: as §1, §2, §3
Example: In Vivo Preventive Test on Botrytis Test (Beans)
as §4, §5
To test for preventive activity, young plants are sprayed with the preparation of active compound. After the spray coating has dried on, 2 small pieces of agar covered with growth of Botrytis cinerea are placed on each leaf. The inoculated plants are placed in a darkened chamber at 20° C. and a relative atmospheric humidity of 100%.
2 days after the inoculation, the size of the lesions on the leaves is evaluated. 0% means an efficacy which corresponds to that of the untreated control, while an efficacy of 100% means that no disease is observed.

Phakopsora pachyrhizi = test: in vivo preventive test on Phakopsora test (soybeans); settings: single active compound
Text: as §1, §2, §3
Example: In Vivo Preventive Test on Phakopsora Test (Soybeans)
as §4, §5
as §6, with “the causal agent of soybean rust (Phakopsora pachyrhizi) and stay for 24 h without light” for “Alternaria solani. The plants are then placed”, “24°” for “20°”, “95%.” for “100%.”
The plants remain in the incubation cabinet at approximately 24° C. and a relative atmospheric humidity of approximately 80% and a day/night interval of 12 h.
The test is evaluated 7 days after the inoculation. 0% means an efficacy which corresponds to that of the untreated control, while an efficacy of 100% means that no disease is observed.

Uromyces appendiculatus = test: in vivo preventive test on Uromyces test (beans); settings: single active compound, the 7th table
Text: as §1, §2, §3
Example: In Vivo Preventive Test on Uromyces Test (Beans)
as §4
To produce a suitable preparation of active compound, 1 part by weight of active compound is mixed with the stated amounts of solvent and emulsifier, and the concentrate is diluted with water to the desired concentration. To test for preventive activity, young plants are sprayed with the preparation of active compound at the stated rate of application. After the spray coating has dried on, the plants are inoculated with an aqueous spore suspension of the causal agent of bean rust (Uromyces appendiculatus) and then remain for 1 day in an incubation cabinet at approximately 20° C. and a relative atmospheric humidity of 100%. The plants are then placed in a greenhouse at approximately 21° C. and a relative atmospheric humidity of approximately 90%.
as §7

CO/C=C(/C(=O)OC)c1ccccc1Oc1cc(Oc2ccccc2C#N)ncn1 [1.3, azoxystrobin]
Efficacy in % found (Alternaria solani; 0.25 ppm a.i., the 1st table): 45% | Efficacy in % found (Alternaria solani; 0.25 ppm a.i., the 2nd table): 35% | Efficacy in % found (Alternaria solani; 0.5 ppm a.i., the 1st table): 35% | Efficacy in % found (Alternaria solani; 0.5 ppm a.i., the 2nd table): 8% | Efficacy in % found (Alternaria solani; 1 ppm a.i., the 1st table): 65% | Efficacy in % found (Alternaria solani; 1 ppm a.i., the 2nd table): 15% | Efficacy in % found (Venturia inaequalis; 0.5 ppm a.i., the 8th table): 25% | Efficacy in % found (Venturia inaequalis; 0.5 ppm a.i., the 9th table): 88% | Efficacy in % found (Venturia inaequalis; 1 ppm a.i., the 8th table): 30% | Efficacy in % found (Venturia inaequalis; 1 ppm a.i., the 9th table): 94% | Efficacy in % found (Botrytis cinerea; 0.25 ppm a.i.): 30% | Efficacy in % found (Botrytis cinerea; 0.5 ppm a.i.): 15% | Efficacy in % found (Phakopsora pachyrhizi; 0.25 ppm a.i., the 4th table): 0% | Efficacy in % found (Phakopsora pachyrhizi; 0.25 ppm a.i., the 5th table): 16% | Efficacy in % found (Phakopsora pachyrhizi; 0.5 ppm a.i., the 4th table): 18% | Efficacy in % found (Phakopsora pachyrhizi; 0.5 ppm a.i., the 5th table): 41%

CO/C=C(/C(=O)OC)c1ccccc1COc1cccc(C(F)(F)F)n1 [1.16, picoxystrobin]
Efficacy in % found (Alternaria solani; 0.25 ppm a.i., the 1st table): 30% | Efficacy in % found (Alternaria solani; 0.25 ppm a.i., the 2nd table): 8% | Efficacy in % found (Alternaria solani; 0.5 ppm a.i., the 1st table): 30% | Efficacy in % found (Alternaria solani; 0.5 ppm a.i., the 2nd table): 8% | Efficacy in % found (Alternaria solani; 1 ppm a.i., the 1st table): 50% | Efficacy in % found (Alternaria solani; 1 ppm a.i., the 2nd table): 35% | Efficacy in % found (Venturia inaequalis; 0.5 ppm a.i., the 9th table): 13% | Efficacy in % found (Botrytis cinerea; 0.25 ppm a.i.): 40% | Efficacy in % found (Botrytis cinerea; 0.5 ppm a.i.): 40% | Efficacy in % found (Phakopsora pachyrhizi; 0.25 ppm a.i., the 4th table): 0% | Efficacy in % found (Phakopsora pachyrhizi; 0.25 ppm a.i., the 5th table): 0% | Efficacy in % found (Phakopsora pachyrhizi; 0.5 ppm a.i., the 4th table): 24% | Efficacy in % found (Phakopsora pachyrhizi; 0.5 ppm a.i., the 5th table): 0% | Efficacy in % found (Phakopsora pachyrhizi; 1 ppm a.i., the 4th table): 9% | Efficacy in % found (Phakopsora pachyrhizi; 1 ppm a.i., the 5th table): 62%

CON=C(C(=O)OC)c1ccccc1CON=C(C)c1cccc(C(F)(F)F)c1 [1.22, trifloxystrobin]
Efficacy in % found (Alternaria solani; 0.25 ppm a.i., the 1st table): 8% | Efficacy in % found (Alternaria solani; 0.5 ppm a.i., the 1st table): 24% | Efficacy in % found (Alternaria solani; 1 ppm a.i., the 1st table): 35% | Efficacy in % found (Venturia inaequalis; 0.25 ppm a.i., the 10th table): 0% | Efficacy in % found (Venturia inaequalis; 0.5 ppm a.i., the 10th table): 5% | Efficacy in % found (Venturia inaequalis; 1 ppm a.i., the 10th table): 5% | Efficacy in % found (Uromyces appendiculatus; 0.25 ppm a.i.): 0% | Efficacy in % found (Uromyces appendiculatus; 1 ppm a.i.): 0% | Efficacy in % found (Phakopsora pachyrhizi; 0.25 ppm a.i., the 6th table): 0% | Efficacy in % found (Phakopsora pachyrhizi; 0.5 ppm a.i., the 6th table): 0% | Efficacy in % found (Phakopsora pachyrhizi; 1 ppm a.i., the 6th table): 0%

CCC1CC(C)(C)c2cccc(NC(=O)c3cccnc3C(F)F)c21 (stereo not drawn) [(I-3), 2-(difluoromethyl)-N-(3-ethyl-1,1-dimethyl-2,3-dihydro-1H-inden-4-yl)nicotinamide]
Efficacy in % found (Venturia inaequalis; 0.25 ppm a.i., the 8th table): 10% | Efficacy in % found (Venturia inaequalis; 1 ppm a.i., the 8th table): 13% | Efficacy in % found (Venturia inaequalis; 1 ppm a.i., the 10th table): 15% | Efficacy in % found (Phakopsora pachyrhizi; 0.5 ppm a.i., the 6th table): 28% | Efficacy in % found (Phakopsora pachyrhizi; 1 ppm a.i., the 6th table): 38%

CC[C@@H]1CC(C)(C)c2cccc(NC(=O)c3cccnc3C(F)F)c21 [(I-4), 2-(difluoromethyl)-N-[(3R)-3-ethyl-1,1-dimethyl-2,3-dihydro-1H-inden-4-yl]nicotinamide]
Efficacy in % found (Venturia inaequalis; 0.25 ppm a.i., the 8th table): 10% | Efficacy in % found (Venturia inaequalis; 1 ppm a.i., the 10th table): 37% | Efficacy in % found (Botrytis cinerea; 0.5 ppm a.i.): 15% | Efficacy in % found (Phakopsora pachyrhizi; 0.5 ppm a.i., the 4th table): 87% | Efficacy in % found (Phakopsora pachyrhizi; 1 ppm a.i., the 4th table): 87%

CCCC1CC(C)(C)c2cccc(NC(=O)c3cccnc3C(F)F)c21 (stereo not drawn) [(I-5), 2-(difluoromethyl)-N-(1,1-dimethyl-3-propyl-2,3-dihydro-1H-inden-4-yl)nicotinamide]
Efficacy in % found (Venturia inaequalis; 1 ppm a.i., the 10th table): 10% | Efficacy in % found (Uromyces appendiculatus; 0.25 ppm a.i.): 93%

CCC[C@@H]1CC(C)(C)c2cccc(NC(=O)c3cccnc3C(F)F)c21 [(I-6), 2-(difluoromethyl)-N-[(3R)-1,1-dimethyl-3-propyl-2,3-dihydro-1H-inden-4-yl]nicotinamide]
Efficacy in % found (Alternaria solani; 0.5 ppm a.i., the 1st table): 30% | Efficacy in % found (Phakopsora pachyrhizi; 0.25 ppm a.i., the 5th table): 95% | Efficacy in % found (Phakopsora pachyrhizi; 1 ppm a.i., the 5th table): 93%
